# Assay results from patent publication US11932641B1, “Pyrido[4′,3′:4,5]pyrrolo[3,2-b][1,7]naphthyridine compounds as CK2 inhibitors” (KING FAISAL UNIVERSITY, priority 2023, dated 2024).
# Tests used:
# HCT116 (colon) = test: In vitro cytotoxic activity (MTT) assay, HCT116; type: cell-based; settings: Homo sapiens, HCT-116; HCT116 (colon) cells, 96 hours exposure; read-out: IC50, 50% inhibition of cell proliferation
# Experimental: (§1) Compounds 1-12 were screened for their in vitro cytotoxic activity utilizing a 3-(4,5-dimethyl-thiazol-2-yl)-2,5-diphenyltetrazolium bromide (MTT) assay against selected cancer human cell lines consisting of PC3 (prostate), HCT116 (colon), A375 (melanoma), H1299 (lung), MIAPaCa-2 (pancreas), HL60 (leukemia), MCF7 (breast), MDA-MB-231 (breast) (T. Mosmann, J. Immunol. Meth., 1983, 65, 55-63). The cells were cultured at 37° C. in RMPI1640 medium supplemented with 10% fetal bovine serum, 50 IU/mL penicillin, and 50 μg/mL streptomycin in a 5% CO2 incubator. All cells were sub-cultured 3 times/week by trypsinisation. Viable cells were seeded and allowed to adhere for 12 h before a test drug was added in 96-well plates at an initial density of 1.0×10^5 cells/mL. Tumour cell lines were separately exposed to various concentrations of the tested compounds followed by incubation at a temperature of 37° C. during 96 h inside a medium of fresh RMPI 1640. Cells were subsequently incubated at 37° C. using MTT at 0.5 mg/mL during 4 h. After removal of supernatant, formazan crystals were dissolved in isopropanol and the optical density was measured at 570 nm. CX-4945 was used as a positive control.
# H1299 (lung) = test: In vitro cytotoxic activity (MTT) assay, H1299; type: cell-based; settings: Homo sapiens, NCI-H1299; H1299 (lung) cells, 96 hours exposure; read-out: IC50, 50% inhibition of cell proliferation
# Experimental: as §1
# MDA-MB-231 (breast) = test: In vitro cytotoxic activity (MTT) assay, MDA-MB-231; type: cell-based; settings: Homo sapiens; MDA-MB-231 (breast) cells, 96 hours exposure; read-out: IC50, 50% inhibition of cell proliferation
# Experimental: as §1
# MCF7 (breast) = test: In vitro cytotoxic activity (MTT) assay, MCF7; type: cell-based; settings: Homo sapiens; MCF7 (breast) cells, 96 hours exposure; read-out: IC50, 50% inhibition of cell proliferation
# Experimental: as §1
# [1] = target: T1, recombinant human CK2 (RRββ-holoenzyme) (Homo sapiens, UniProt P68400); test: CK2 kinase assay (33P-ATP, filter plate); type: biochemical; settings: final ATP 15 μM, 10 min at 30° C.; read-out: protein kinase CK2 IC50
# T1 construct: purchased Millipore
# T1 sequence (P68400 whole entry): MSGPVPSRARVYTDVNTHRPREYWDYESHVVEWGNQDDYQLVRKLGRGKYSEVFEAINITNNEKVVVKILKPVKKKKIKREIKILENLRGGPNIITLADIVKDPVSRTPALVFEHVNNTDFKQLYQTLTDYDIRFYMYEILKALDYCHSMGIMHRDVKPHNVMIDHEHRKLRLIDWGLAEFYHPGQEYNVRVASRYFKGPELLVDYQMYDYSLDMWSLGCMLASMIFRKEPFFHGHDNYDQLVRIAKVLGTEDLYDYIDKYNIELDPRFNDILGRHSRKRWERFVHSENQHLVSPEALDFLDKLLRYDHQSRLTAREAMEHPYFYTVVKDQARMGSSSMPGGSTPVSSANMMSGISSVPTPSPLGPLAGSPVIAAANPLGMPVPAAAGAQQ
# T1 sequence (P67870 whole entry partner): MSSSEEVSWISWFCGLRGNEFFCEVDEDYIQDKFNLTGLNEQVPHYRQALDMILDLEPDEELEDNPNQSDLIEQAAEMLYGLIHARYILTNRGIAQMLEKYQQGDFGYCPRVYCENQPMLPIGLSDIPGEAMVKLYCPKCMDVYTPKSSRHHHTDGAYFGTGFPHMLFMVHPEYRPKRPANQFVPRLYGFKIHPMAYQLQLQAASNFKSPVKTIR
# Experimental: CK2 Kinase Assay was conducted using the protocol as described in Pierre F. et al; J. Med Chem. 2011, 54, 635-654. The tested compounds in aqueous solution were added at a volume of 10 μL to a reaction mixture comprising 10 μL of assay dilution buffer (ADB; 20 mM MOPS, pH 7.2, 25 mM β-glycerol phosphate, 5 mM EGTA, 1 mM sodium orthovanadate, and 1 mM dithiothreitol), 10 μL of substrate peptide (RRRDDDSDDD, dissolved in ADB at a concentration of 1 mM), 10 μL of recombinant human CK2 (RRββ-holoenzyme, 25 ng dissolved in ADB; Millipore). Reactions were initiated by the addition of 10 μL of ATP solution (90% 75 mMMgCl2, 75 μM ATP (final ATP concentration: 15 μM) dissolved in ADB; 10% [γ-33P] ATP (stock 1 mCi/100 μL; 3000 Ci/mmol (Perkin-Elmer) and maintained for 10 min at 30° C. The reactions were quenched with 100 μL of 0.75% phosphoric acid and then transferred to and filtered through a phosphor cellulose filter plate (Millipore). After washing each well five times with 0.75% phosphoric acid, the plate was dried under vacuum for 5 min and, following the addition of 15 μL of scintillation fluid to each well, the residual radioactivity was measured using a Wallac […]. The IC50 values were derived from eight concentrations of test inhibitors.
# MIAPaCa-2 (pancreas) = test: In vitro cytotoxic activity (MTT) assay, MIAPaCa-2; type: cell-based; settings: Homo sapiens, MIA PaCa-2; MIAPaCa-2 (pancreas) cells, 96 hours exposure; read-out: IC50, 50% inhibition of cell proliferation
# Experimental: as §1
# A375 (melanoma) = test: In vitro cytotoxic activity (MTT) assay, A375; type: cell-based; settings: Homo sapiens, A-375; A375 (melanoma) cells, 96 hours exposure; read-out: IC50, 50% inhibition of cell proliferation
# Experimental: as §1
# PC3 (prostate) = test: In vitro cytotoxic activity (MTT) assay, PC3; type: cell-based; settings: Homo sapiens, Prostate cell; PC3 (prostate) cells, 96 hours exposure; read-out: IC50, 50% inhibition of cell proliferation
# Experimental: as §1
# HL60 (leukemia) = test: In vitro cytotoxic activity (MTT) assay, HL60; type: cell-based; settings: Homo sapiens, HL-60; HL60 (leukemia) cells, 96 hours exposure; read-out: IC50, 50% inhibition of cell proliferation
# Experimental: as §1
smiles,measurement,setting,value
"Clc1ccc(Nc2c3ccncc3nc3c2[nH]c2cnccc23)cc1 [Compound 1, N-(4-chlorophenyl)-11H-pyrido[4′,3′:4,5]pyrrolo[3,2-b][1,7]naphthyridin-10-amine]",IC50,HCT116 (colon),1500 nM
same,IC50,H1299 (lung),2400 nM
same,IC50,MDA-MB-231 (breast),5.2 µM
same,IC50,MCF7 (breast),8.5 µM
same,IC50,[1],5 nM
same,IC50,MIAPaCa-2 (pancreas),1600 nM
same,IC50,A375 (melanoma),3.4 µM
same,IC50,PC3 (prostate),1300 nM
same,IC50,HL60 (leukemia),3.1 µM
